The test deals with T1, GIRK heteromers (UniProt P48542+P48549).
T1 construct: expressed in transfected cells; HEK293-T in the methods
T1 sequence (P48549 1-501): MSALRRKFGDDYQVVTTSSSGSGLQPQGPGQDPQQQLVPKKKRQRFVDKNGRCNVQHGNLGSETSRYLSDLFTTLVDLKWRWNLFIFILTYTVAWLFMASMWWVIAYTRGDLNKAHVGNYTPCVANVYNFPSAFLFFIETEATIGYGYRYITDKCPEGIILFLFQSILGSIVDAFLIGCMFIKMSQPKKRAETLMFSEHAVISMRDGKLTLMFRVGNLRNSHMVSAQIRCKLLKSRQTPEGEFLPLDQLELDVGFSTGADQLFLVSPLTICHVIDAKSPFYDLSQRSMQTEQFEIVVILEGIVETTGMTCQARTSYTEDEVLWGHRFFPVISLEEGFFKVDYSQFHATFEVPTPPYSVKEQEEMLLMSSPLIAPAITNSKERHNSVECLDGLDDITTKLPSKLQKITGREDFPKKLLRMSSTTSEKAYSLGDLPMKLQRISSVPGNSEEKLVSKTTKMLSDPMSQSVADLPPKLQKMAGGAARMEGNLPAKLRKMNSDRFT
T1 sequence (P48542 1-425): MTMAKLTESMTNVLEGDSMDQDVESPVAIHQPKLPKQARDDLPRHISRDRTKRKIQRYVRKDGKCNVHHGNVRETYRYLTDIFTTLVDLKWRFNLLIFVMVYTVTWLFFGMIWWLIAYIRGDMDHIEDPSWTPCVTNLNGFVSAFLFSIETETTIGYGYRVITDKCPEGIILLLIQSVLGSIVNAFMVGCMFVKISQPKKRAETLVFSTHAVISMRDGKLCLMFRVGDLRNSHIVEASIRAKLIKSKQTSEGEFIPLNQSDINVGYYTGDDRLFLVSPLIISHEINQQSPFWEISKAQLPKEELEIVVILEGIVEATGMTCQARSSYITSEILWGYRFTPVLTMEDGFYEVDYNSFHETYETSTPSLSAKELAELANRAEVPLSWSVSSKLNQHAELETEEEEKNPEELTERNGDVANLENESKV
Briefly: concentration-response after PIP2 hydrolysis by light-sensitive phosphatase, whole-cell patch-clamp in mammalian cells. Type of test: cell-based. The settings on record: stimulation of light-sensitive phosphatase, FIGS. 20A-20C. The source says:
The MD simulations indicated a PIP2-dependent activation effect by ML297 and the GAT compounds in GIRK heteromers leading to channel gating. To experimentally test the role of PIP2 in channel activation by ML297 and the GAT compounds, the inventors proceeded to first manipulate PIP2 levels by inducing a light-sensitive phosphatase in whole-cell patch-clamp experiments in mammalian cells and to examine the effects of the activating compounds (FIGS. 20A-20C).
Light-activated phosphatase system: The inventors used a light-activated phosphatase system to dephosphorylate PIP2 that is comprised of two fusion proteins: CRY2-5-ptaseOCRL contains the photolyase domain of cryptochrome 2 (CRY2) and the inositol 5-phosphatase domain of the […] oculocerebrorenal syndrome protein (OCRL), while CIBN-CAAX contains the CRY2 binding domain (CIBN) and a C-terminal CAAX box for plasma membrane targeting. When CRY2-5-ptaseOCRL and CIBN-CAAX fusion proteins are co-expressed and exposed to blue light between 458-488 nm, the 5-ptase is localized to the plasma membrane, where it dephosphorylates PIP2. […] The 5-ptaseOCRL system was activated using a 460 nm LED (Luminus) that was focused on the cells through the objective lens of an inverted microscope (Nikon).
Patch-clamp recording: Whole-cell currents were recorded with an Axopatch 200B amplifier (Molecular Devices) controlled via a USB-interface (National Instruments) using WinWCP software (University of Strathclyde). Currents were acquired through a lowpass Bessel filter at 2 kHz and were digitized at 10 kHz. […] Cells for study were selected based on GFP expression using an epifluorescence microscope (Nikon). […] The barium-sensitive component of the current, observed when cells were perfused with the high-K^+ buffer, was analyzed and was determined by perfusing 5 mM BaCl2 in the high-K^+ buffer at the end of each experiment. […]

For the compound `Cc1cc(NC(=O)Nc2ccc(C)s2)n(-c2ccccc2)n1` [GAT1521, 1-(3-methyl-1-phenyl-1H-pyrazol-5-yl)-3-(5-methylthiophen-2-yl)urea], the “decrease in potency following hydrolysis of PIP2” value is about 3.7 fold. Then `Cc1cc(NC(=O)Nc2ccc(Br)s2)n(-c2ccccc2)n1` [GAT1508, 1-(5-bromothiophen-2-yl)-3-(3-methyl-1-phenyl-1H-pyrazol-5-yl)urea], with about 2 fold; and `Cc1cc(NC(=O)Nc2ccc(F)c(F)c2)n(-c2ccccc2)n1` [ML297, reference compound], with about 3 fold.

(Values after US12351574B2, “Selective ligands for modulation of GIRK channels” (Northeastern University, priority 2018, dated 2025).)
